Measured values published in patent US8518906B2, “Rho kinase inhibitors for treatment of mastocytosis and acute myeloid leukemia” (Indiana University Research & Technology Corporation, priority 2011, dated 2013).
Like-named read-outs stand apart in the source and are kept apart here.

Experiments:
[1] = Method: After 48 hours of transplantation, mice were treated with vehicle (PBS) or H-1152 (66 mg/kg body weight) by oral gavage at 12 hours interval for 14 days. In the second study, mice were treated with vehicle, H-1152 (50 mg/kg body weight, oral gavage) or fasudil (25 mg/kg body weight, intraperitoneal) at 24 hour intervals for 21 days. […] After 10 days of transplantation, mice were treated with vehicle, H-1152 (50 mg/kg body weight, oral gavage) or fasudil (25 mg/kg body weight, intraperitoneal) at 24 hour intervals for 21 days. In all studies, mice were closely monitored for MPD and harvested at moribund. Bone marrow, spleen, liver and lungs were fixed in 10% buffered formalin and sections were stained with hematoxylin and eosin for histopathologic analysis.
32D cells bearing KIT = test: F-actin content, 32D cells bearing KIT with IL-3; type: cell-based, murine; conditions: in the presence of IL-3
Method: After treatment, cells were fixed with 4% paraformaldehyde in PBS for 15 min and washed with PBS. After fixing, cells were quenched with 0.1 M glycine in PBS for 15 min and washed with PBS. Then, cells were permeabilized with 0.2% Triton X-100 (w/v) in PBS for 10 min and washed with PBS followed by blocking non-specific binding sites with 5% rat serum containing 0.2% BSA in PBS. Cells were stained with FITC-conjugated phalloidin for 30 min, washed with 0.2% BSA in PBS, and analyzed by flow cytometry.

[2] = test system: HMC1.2 cells (KITV560G and KITD816V); test: Growth of HMC1.2 cells; type: cell-based, Human
Method: (§1) The murine IL-3 dependent and G418 resistant pro-B cell line BaF3 bearing FLT3 and FLT3N51 were cultured in medium containing IMDM supplemented with 10% FBS, G418 (2 mg/mL), and murine IL-3 (5 ng/mL). The Human mast cell leukemia line, bearing the KITV560G as well as KITD816V mutations, HMC1.2 and acute myeloid leukemia (AML) cell line, bearing the FLT3-ITD mutation, MV4-11 were obtained from the American Type Culture Collection (Manassas, Va.) and cultured in medium containing IMDM supplemented with 15% FBS and 1.2 mM monothioglycerol.
(§2) Specifically, the growth of HMC1.2 cells bearing the activating KIT mutation (KITV560G and KITD816V) and MV4-11 cells bearing the activating FLT3 mutation (FLT3-ITD) treated with H-1152 was determined.

[3] = test system: mice transplanted with 32D cells bearing FLT3N51; test: MPD and survival of mice transplanted with 32D cells bearing FLT3N51; type: in vivo, C3H/HeJ mice; conditions: treated for 21 days starting two weeks after transplantation, vs PBS
Method: To further determine the efficacy of ROCK inhibitors in treating MPD due to activating mutations in receptor tyrosine kinases, similar pharmacological studies were performed using a different oncogene and a distinct ROCK inhibitor. 32D cells bearing FLT3N51 were transplanted into syngenic C3H/HeJ mice through tail vein. After two weeks of transplantation, mice were treated with PBS (vehicle), H-1152, or fasudil for 21 days and monitored for MPD and survival. […] After 5 weeks of prolonged survival compared to PBS treated mice, H-1152 or fasudil treated mice were sacrificed and further analysis were performed.

[4] = test system: primary HSC/Ps bearing FLT3N51; test: Proliferation, primary HSC/Ps transduced with FLT3N51; type: cell-based, C57BL/6 mice
Method: Retroviral supernatants for transduction of 32D and primary HSC/Ps were generated using the Phoenix ecotropic packaging cell line transfected with retroviral vector plasmids using a calcium phosphate transfection kit (Invitrogen, Carlsbad, Calif.). Supernatants were collected 48 hours after transfection and filtered through […] membranes. 32D cells were infected with 2 mL high-titer virus supernatant in the presence of polybrene (8 μg/mL) and IL-3 (10 ng/mL). Low density mononuclear cells (LDMNCs) were suspended in IMDM containing 20% FBS and 1% penicillin/streptomycin, and pre-stimulated in non-tissue culture plates supplemented with SCF (100 ng/mL), FL T3L (50 ng/mL), IL-6 (4 ng/mL), and Tpo (100 ng/mL) for 48 hours prior to retroviral infection on fibronectin fragments. After infection, 32D and primary HSC/Ps bearing the vector, WT or oncogenic receptors were sorted to homogeneity based on EGFP expression and used to perform all experiments.
To validate whether the suppression in growth of oncogene bearing cells by ROCK inhibitors observed in 32D cells also occurs in primary hematopoietic stem and progenitor cells (HSC/Ps), primary HSC/Ps from C57BL/6 mice were transduced with FLT3 or FLT3N51 and analyzed for proliferation in the presence or absence of ROCK inhibitors.

[5] = test system: cells bearing CHRD814V or CHRD814V-Y719; test: Constitutive growth of cells bearing CHRD814V or CHRD814V-Y719; type: cell-based
Source text: (§3) Utilizing Chimeric KIT receptors (CHR) as template, we generated the mutant CHRD814V and CHRD814V with none (CHRD814V-F7) or single intracellular tyrosine add-back mutant at 719 (CHRD814V-Y719) using the Quick change Site-Directed Mutagenesis kit (Stratagene, La Jolla, Calif.) and the following primer pair (SEQ ID NO: 2: forward: 5′-[…]-3; SEQ ID NO: 3: reverse: 5′-[…]-3′). All of these mutated CHRD814V receptors were verified by direct sequencing.
(§4) CHRD814V-Y719 is similar to CHRD814V-F7 except that tyrosine residue 719 (the binding site for p85α) is preserved.

[6] = test system: 32D cells bearing MIEG3 or KIT, BaF3 cells bearing FLT3; test: Proliferation (thymidine incorporation), cells bearing MIEG3, KIT or FLT3 with IL-3; type: cell-based, murine; conditions: cells bearing MIEG3, KIT or FLT3, in the presence of IL-3
Method: as §1
IL-3 enhances the growth of these cells.

ROCK = ROCK activity (pMYPT1) in cells derived from AML and mastocytosis patients; type: cell-based, human
Source text: (§5) Blast cells from the bone marrow of patients with AML were obtained at the time of diagnostic testing. Approval was obtained from the institutional review boards of Indiana University School of Medicine. The buoyant fraction was isolated over Ficoll-Hypaque, and then washed with phosphate-buffered saline (PBS) before processing.
as §2

[7] = test system: 32D cells bearing BCR-ABLT315I; test: Proliferation, 32D cells expressing imatinib-resistant BCR-ABLT315I mutant; type: cell-based, murine
MV4-11 cells (FLT3-ITD) = test: Growth of MV4-11 cells; type: cell-based, Human
Method: as §1, §2

[8] = test system: cells derived from AML and mastocytosis patients; test: Growth (thymidine incorporation) of cells derived from AML and mastocytosis patients; type: cell-based, human
Source text: as §5, §2

[9] = test system: KIT or MIEG3 bearing 32D cells; test: Cell death (annexin V and 7-AAD), KIT or MIEG3 bearing 32D cells; type: cell-based, murine
Method: 2×10^5 cells were plated in 24 well plates in the presence and absence of IL-3 and indicated concentrations of different ROCK inhibitors. Forty eight hours after treatment, cells were washed with PBS and the percentage of cell death was determined by annexin V and 7-AAO staining. Cells were re-suspended in 1× annexin V binding buffer and incubated for 30 min at 4° C. Cells were incubated with 5 μL each of annexin V and 7-AAO for 20 min at room temperature in the dark. After incubation, percentage of apoptotic cells (annexin V and 7-AAO positive) was determined using flow cytometry.
In this Example, the survival of oncogene bearing cells in the presence or absence of ROCK inhibitors was evaluated to determine how ROCK inhibitors might inhibit the growth of oncogene bearing cells.

[10] = test system: cells bearing CHRD814V-F7; test: Growth of cells bearing CHRD814V-F7 in the presence of IL-3; type: cell-based; conditions: cells bearing CHRD814V-F7, in the presence of IL-3, data not shown
Source text: as §3, §4

[11] = test system: AKT, ERK, Stat5, PKA and PKC; test: Activation of AKT, ERK, Stat5, PKA and PKC in oncogene bearing cells, Western blot; type: cell-based, murine
Method: Cells were lysed in lysis buffer and centrifuged at 10,000 rpm for 5 min at 4° C. Supernatants were collected and protein concentration was determined using the BCA protein assay (Thermo Fisher Scientific, Rockford, Ill.). Equal amounts of protein extracts were mixed with gel loading buffer and separated on SDS-polyacrylamide gels. After electrophoresis, the proteins were transferred onto nitrocellulose membranes and nonspecific binding was blocked with 5% nonfat dry milk in Tris-buffered saline containing 0.1% Tween-20 (TBS-T). Membranes were then probed with various antibodies overnight at 4° C. on a rocker. After incubation, membranes were washed with TBS-T and incubated with appropriate horseradish peroxidase (HRP)-conjugated secondary antibodies for 1 hour at room temperature. Finally, the proteins on the membranes were detected using SuperSignal West Dura Luminol/Enhancer solution (Thermo Fisher Scientific, Rockford, Ill.) and exposing the membranes to X-ray film.

[12] = human trials for cardiovascular indications; cited from earlier work

SMILES | signs of toxicity ([1]; treated mice) | F-actin content (32D cells bearing KIT) | growth of HMC1.2 cells [2] | spleen and liver weights [3] | survival [3] | proliferation (thymidine incorporation) [4] | constitutive growth (thymidine incorporation) [5] | proliferation (thymidine incorporation) [6] | ROCK activity (ROCK) | growth of cells bearing BCR-ABLT315I [7] | growth of MV4-11 cells (MV4-11 cells (FLT3-ITD)) | growth (thymidine incorporation) [8] | cell death [9] | growth [10] | activation of AKT, ERK, Stat5, and PKC ([11]; Example 1) | activation of ERK, AKT, Stat5, PKA and PKC ([11]; Example 8) | signs of toxicity ([1]; mouse, in vivo) | toxicity upon ROCK inhibition in vivo [12]
Cc1cncc2cccc(S(=O)(=O)N3CCCNC[C@@H]3C)c12 [H-1152] | no signs of toxicity | no effect on F-actin content | dose dependent reduction in growth | significantly reduced spleen and liver weights | significantly prolonged the survival | significant reduction in proliferation | dose dependent inhibition in constitutive growth | minimal suppression in proliferation | repression in ROCK activity | dose dependent suppression in growth | dose dependent reduction in growth | repression in ROCK activity and growth | 5-10% | only a moderate suppression in growth | no effect | relatively unperturbed |  | 
C[C@@H](N)[C@H]1CC[C@H](C(=O)Nc2ccncc2)CC1 [Y27632] |  |  |  |  |  | significant reduction in the growth |  |  |  |  |  |  |  |  |  |  |  | 
O=S(=O)(c1cccc2cnccc12)N1CCCNCC1 [fasudil] |  |  |  | significantly reduced spleen and liver weights |  | significant reduction in the growth |  |  |  |  |  |  |  |  |  |  | no signs of toxicity | lack of toxicity
